According to US8334316B2, “Substituted organosulfur compounds and methods of using thereof” (ACEA Biosciences, Inc., priority 2004, dated 2012):

Experiment: Acute toxicity, single intravenous injection, LD50 (Bliss method) in Kunming mice
Type: in vivo
Method: To evaluate the in vivo acute, intravenous toxicity of DBTS and ACEA100108 (a derivative of DBTS, see Table 33), the experiments were performed in non-tumor bearing, normal Kunming mice by monitoring the acute response of mice to a single dose of DBTS or ACEA100108 via intravenous injection (i.v.). The number of death for the treated mice was monitored and recorded. LD50 values for these compounds were calculated. Details of the study are provided below.
The experiments to test DBTS and ACEA100108 acute toxicity were performed in mice. The test mice were randomly divided into six groups (five dosing groups and one control group). Each group contained 20 Kunming strain mice, and among them, 50% were male and 50% were female. After administration of a single dose of DBTS or ACEA100108 via intravenous injection (i.v.), the acute response to DBTS or ACEA100108 compound, and the death of the treated mice during the first two weeks were monitored and recorded. The LD50 value was calculated using the Bliss method.
Materials and Method. The test chemical compound were DBTS and ACEA100108, which were dissolved into hydrogenated castor oil in the pre-warmed water bath and made as a 20 mg/ml solution. The solution was further diluted to desired experiment concentrations with the normal saline. The administration volume was 0.5 ml i.v. per mouse and the injection speed was 0.5 ml/0.5 min.
The experimental mice were Kunming strain, provided by the Experimental Animal Department, Shanghai Pharmaceutical Industry Institute. The certificate number of the facility was Animal Facility Certification Number 107. The average weight of the mice was 18-20 gram. Each test group contained 20 Kunming strain mice, and among them, 10 mice were male and 10 mice were female. […] The mice in the control group were only given the same volume of the solvent, which were diluted hydrogenated castor oil. All the testing mice were given a single intravenous injection of DBTS, ACEA100108, or the solvent that served as the control at the injection speed of 0.5 ml/0.5 min. The acute response to DBTS, ACEA100108 or the solvent immediately after the administration, as well as weight change, and the death within the first two weeks of the administration were monitored and recorded. The intravenous injection LD50 values in mice were calculated using the Bliss method.

[1] = 50% male, 50% female, 163.8 mg/kg, 20 animals
[2] = 50% male, 50% female, 204.8 mg/kg, 20 animals
[3] = 50% male, 50% female, 256 mg/kg, 20 animals
[4] = 50% male, 50% female, 320 mg/kg, 20 animals
[5] = 50% male, 50% female, 400 mg/kg, 20 animals
[6] = 50% male, 50% female, 500 mg/kg, 20 animals
[7] = Female, 163.8 mg/kg, 10 animals
[8] = Female, 204.8 mg/kg, 10 animals

Fc1ccc(CSSSCc2ccc(F)cc2)cc1 [ACEA100108, Di(p-fluorobenzyl)trisulfide]
Dead animals on day 1 after the single intravenous injection [1]: 0
Dead animals on day 2 after the single intravenous injection [1]: 0
Dead animals on day 3 after the single intravenous injection [1]: 0
Dead animals on day 4 after the single intravenous injection [1]: 0
Dead animals on day 5 after the single intravenous injection [1]: 0
Dead animals on day 6 after the single intravenous injection [1]: 0
Dead animals on day 7 after the single intravenous injection [1]: 0
Dead animals on day 8 after the single intravenous injection [1]: 0
Dead animals on day 9 after the single intravenous injection [1]: 0
Dead animals on days 10-14 after the single intravenous injection [1]: 0 - - - 0
Percentage of dead animals [1]: 0%
Dead animals on day 1 after the single intravenous injection [2]: 0
Dead animals on day 2 after the single intravenous injection [2]: 0
Dead animals on day 3 after the single intravenous injection [2]: 1
Dead animals on day 4 after the single intravenous injection [2]: 0
Dead animals on day 5 after the single intravenous injection [2]: 0
Dead animals on day 6 after the single intravenous injection [2]: 0
Dead animals on day 7 after the single intravenous injection [2]: 0
Dead animals on day 8 after the single intravenous injection [2]: 0
Dead animals on day 9 after the single intravenous injection [2]: 0
Dead animals on days 10-14 after the single intravenous injection [2]: 0 - - - 0
Percentage of dead animals [2]: 5%
Dead animals on day 1 after the single intravenous injection [3]: 0
Dead animals on day 2 after the single intravenous injection [3]: 4
Dead animals on day 3 after the single intravenous injection [3]: 0
Dead animals on day 4 after the single intravenous injection [3]: 2
Dead animals on day 5 after the single intravenous injection [3]: 0
Dead animals on day 6 after the single intravenous injection [3]: 0
Dead animals on day 7 after the single intravenous injection [3]: 0
Dead animals on day 8 after the single intravenous injection [3]: 0
Dead animals on day 9 after the single intravenous injection [3]: 0
Dead animals on days 10-14 after the single intravenous injection [3]: 0 - - - 0
Percentage of dead animals [3]: 30%
Dead animals on day 2 after the single intravenous injection [4]: 2
Dead animals on day 3 after the single intravenous injection [4]: 5
Dead animals on day 4 after the single intravenous injection [4]: 2
Dead animals on day 5 after the single intravenous injection [4]: 0
Dead animals on day 6 after the single intravenous injection [4]: 0
Dead animals on day 7 after the single intravenous injection [4]: 0
Dead animals on day 8 after the single intravenous injection [4]: 0
Dead animals on day 9 after the single intravenous injection [4]: 0
Dead animals on days 10-14 after the single intravenous injection [4]: 0 - - - 0
Percentage of dead animals [4]: 45%
Dead animals on day 2 after the single intravenous injection [5]: 8
Dead animals on day 3 after the single intravenous injection [5]: 5
Dead animals on day 4 after the single intravenous injection [5]: 0
Dead animals on day 5 after the single intravenous injection [5]: 2
Dead animals on day 6 after the single intravenous injection [5]: 0
Dead animals on day 7 after the single intravenous injection [5]: 0
Dead animals on day 8 after the single intravenous injection [5]: 0
Dead animals on day 9 after the single intravenous injection [5]: 0
Dead animals on days 10-14 after the single intravenous injection [5]: 0 - - - 0
Percentage of dead animals [5]: 75%
Dead animals on day 1 after the single intravenous injection [6]: 20
Dead animals on day 2 after the single intravenous injection [6]: 0
Dead animals on day 3 after the single intravenous injection [6]: 0
Dead animals on day 4 after the single intravenous injection [6]: 0
Dead animals on day 5 after the single intravenous injection [6]: 0
Dead animals on day 6 after the single intravenous injection [6]: 0
Dead animals on day 7 after the single intravenous injection [6]: 0
Dead animals on day 8 after the single intravenous injection [6]: 0
Dead animals on day 9 after the single intravenous injection [6]: 0
Dead animals on days 10-14 after the single intravenous injection [6]: 0 - - - 0
Percentage of dead animals [6]: 100%
Dead animals on day 1 after the single intravenous injection [7]: 0
Dead animals on day 2 after the single intravenous injection [7]: 0
Dead animals on day 3 after the single intravenous injection [7]: 0
Dead animals on day 4 after the single intravenous injection [7]: 0
Dead animals on day 5 after the single intravenous injection [7]: 0
Dead animals on day 6 after the single intravenous injection [7]: 0
Dead animals on day 7 after the single intravenous injection [7]: 0
Dead animals on day 8 after the single intravenous injection [7]: 0
Dead animals on day 9 after the single intravenous injection [7]: 0
Dead animals on days 10-14 after the single intravenous injection [7]: 0 - - - 0
Percentage of dead animals [7]: 0%
Average animal weight, End (Female, 163.8 mg/kg, Beginning 19.6): 24.2
Dead animals on day 1 after the single intravenous injection [8]: 0
Dead animals on day 2 after the single intravenous injection [8]: 0
Dead animals on day 3 after the single intravenous injection [8]: 0
Dead animals on day 4 after the single intravenous injection [8]: 0
Dead animals on day 5 after the single intravenous injection [8]: 0
Dead animals on day 6 after the single intravenous injection [8]: 0
Dead animals on day 7 after the single intravenous injection [8]: 0
Dead animals on day 8 after the single intravenous injection [8]: 0
Dead animals on day 9 after the single intravenous injection [8]: 0
Dead animals on days 10-14 after the single intravenous injection [8]: 0 - - - 0
Percentage of dead animals [8]: 0%
Average animal weight, End (Female, 204.8 mg/kg, Beginning 20.5): 24.3
Dead animals on day 1 after the single intravenous injection (Female, 256 mg/kg, 10 animals): 0
Dead animals on day 2 after the single intravenous injection (Female, 256 mg/kg, 10 animals): 2
Dead animals on day 3 after the single intravenous injection (Female, 256 mg/kg, 10 animals): 0
Dead animals on day 4 after the single intravenous injection (Female, 256 mg/kg, 10 animals): 1
Dead animals on day 5 after the single intravenous injection (Female, 256 mg/kg, 10 animals): 0
Dead animals on day 6 after the single intravenous injection (Female, 256 mg/kg, 10 animals): 0
Dead animals on day 7 after the single intravenous injection (Female, 256 mg/kg, 10 animals): 0
Dead animals on day 8 after the single intravenous injection (Female, 256 mg/kg, 10 animals): 0
Dead animals on day 9 after the single intravenous injection (Female, 256 mg/kg, 10 animals): 0
Dead animals on days 10-14 after the single intravenous injection (Female, 256 mg/kg, 10 animals): 0 - - - 0
Percentage of dead animals (Female, 256 mg/kg, 10 animals): 30%
Average animal weight, End (Female, 256 mg/kg, Beginning 20.1): 24.6
Dead animals on day 1 after the single intravenous injection (Female, 320 mg/kg, 10 animals): 2
Dead animals on day 2 after the single intravenous injection (Female, 320 mg/kg, 10 animals): 2
Dead animals on day 3 after the single intravenous injection (Female, 320 mg/kg, 10 animals): 1
Dead animals on day 4 after the single intravenous injection (Female, 320 mg/kg, 10 animals): 0
Dead animals on day 5 after the single intravenous injection (Female, 320 mg/kg, 10 animals): 0
Dead animals on day 6 after the single intravenous injection (Female, 320 mg/kg, 10 animals): 0
Dead animals on day 7 after the single intravenous injection (Female, 320 mg/kg, 10 animals): 0
